# Source: ChEMBL document CHEMBL1121624, “Synthesis, biological evaluation, and preliminary structure-activity considerations of a series of alkylphenols as intravenous anesthetic agents” (J Med Chem, 1980)
# Tests used:
# Mus musculus [1] = species on record: Mus musculus; assay: Speed of induction of analgesia in mice was determined; I = immediate, <10 s; type: functional, organism-based
# Mus musculus [2] = species on record: Mus musculus; assay: Duration of analgesic action in mice was determined; B = brief, < 5 min; type: functional, organism-based
# in vivo = conditions: mouse
# Mus musculus [3] = species on record: Mus musculus; assay: Hypnotic activity was measured as dose which causes loss of righting reflex for a minimum period of 30s in 50% of mice; Range is 5-10; type: functional
# Mus musculus [4] = species on record: Mus musculus; assay: Hypnotic activity was measured as dose which causes loss of righting reflex for a minimum period of 30s in 50% of mice; Range is 20-30; type: functional
# [5] = Acute toxicity measured as median lethal dose in mice; type: organism-based; conditions: mouse, in vivo
# [6] = Acute toxicity measured as median lethal dose in mice; Range is 80-90; type: organism-based; conditions: mouse, in vivo
# Mus musculus [7] = species on record: Mus musculus; assay: Hypnotic activity was measured as dose which causes loss of righting reflex for a minimum period of 30s in 50% of mice; Range is 20-25; type: functional
# Mus musculus [8] = species on record: Mus musculus; assay: Duration of analgesic action in mice was determined; L = long, >10; type: functional, organism-based
# [9] = Acute toxicity measured as median lethal dose in mice; Range is 100-120; type: organism-based; conditions: mouse, in vivo
# Mus musculus [10] = species on record: Mus musculus; assay: Hypnotic activity was measured as dose which causes loss of righting reflex for a minimum period of 30s in 50% of mice; Range is 10-15; type: functional
# Mus musculus [11] = species on record: Mus musculus; assay: Speed of induction of analgesia in mice was determined; S = slow, 10-15 s; type: functional, organism-based
# Mus musculus [12] = species on record: Mus musculus; assay: Hypnotic activity was measured as dose which causes loss of righting reflex for a minimum period of 30s in 50% of mice; type: functional
# [13] = Acute toxicity measured as median lethal dose in mice; Range is 80-100; type: organism-based; conditions: mouse, in vivo
# [14] = Acute toxicity measured as median lethal dose in mice; […]; type: organism-based; conditions: mouse, in vivo
# [15] = Acute toxicity measured as median lethal dose in mice; Range is 40-60; type: organism-based; conditions: mouse, in vivo
# Mus musculus [16] = species on record: Mus musculus; assay: Hypnotic activity was measured as dose which causes loss of righting reflex for a minimum period of 30s in 50% of mice; Range is 40-60; type: functional
# [17] = Acute toxicity measured as median lethal dose in mice; Range is 120-140; type: organism-based; conditions: mouse, in vivo
# Mus musculus [18] = species on record: Mus musculus; assay: Hypnotic activity was measured as dose which causes loss of righting reflex for a minimum period of 30s in 50% of mice; Range is 20-40; type: functional
# Mus musculus [19] = species on record: Mus musculus; assay: Speed of induction of analgesia in mice was determined; VS = very slow, > 15s; type: functional, organism-based
# Mus musculus [20] = species on record: Mus musculus; assay: Duration of analgesic action in mice was determined; M = moderate, 5-10 min; type: functional, organism-based
# Mus musculus [21] = species on record: Mus musculus; assay: Hypnotic activity was measured as dose which causes loss of righting reflex for a minimum period of 30s in 50% of mice; Range is 15-20; type: functional
# Mus musculus [22] = species on record: Mus musculus; assay: Hypnotic activity was measured as dose which causes loss of righting reflex for a minimum period of 30s in 50% of mice; Range is 30-40; type: functional
# Mus musculus [23] = species on record: Mus musculus; assay: Hypnotic activity was measured as dose which causes loss of righting reflex for a minimum period of 30s in 50% of mice; Range is 10-20; type: functional
# [24] = Acute toxicity measured as median lethal dose in mice; Range is 140-160; type: organism-based; conditions: mouse, in vivo
structure (smiles),measurement,setting,value
CC(C)c1cccc(C(C)C)c1O [PROPOFOL],Speed of induction,Mus musculus [1],Immediate induction
same,Duration of action,Mus musculus [2],Brief duration
same,LD50,in vivo,50 mg/kg
same,HD50,Mus musculus [3],5 mg/kg
CCCc1cccc(CCC)c1O,Speed of induction,Mus musculus [1],Immediate
same,HD50,Mus musculus [4],20 mg/kg
same,Duration of action,Mus musculus [2],Brief duration
same,LD50,[5],100 mg/kg
Cc1cccc(C)c1O,Speed of induction,Mus musculus [1],Immediate induction
same,HD50,Mus musculus [4],20 mg/kg
same,Duration of action,Mus musculus [2],Brief duration
CCCC(C)C1(CC)C(=O)[N-]C(=S)NC1=O.[Na+] (stereo in doubt; form 2) [THIOPENTAL SODIUM],LD50,[6],80 mg/kg
same,HD50,Mus musculus [7],20 mg/kg
CCCCC(C)c1cccc(C(C)C)c1O (stereo unspecified),Duration of action,Mus musculus [8],Long
same,LD50,[9],100 mg/kg
same,HD50,Mus musculus [10],10 mg/kg
same,Speed of induction,Mus musculus [11],Slow
CCCCc1cccc(C(C)C)c1O,HD50,Mus musculus [12],20 mg/kg
same,Speed of induction,Mus musculus [1],Immediate
same,Duration of action,Mus musculus [2],Brief duration
same,LD50,[5],100 mg/kg
CCc1cc(C(C)C)c(O)c(C(C)C)c1,HD50,Mus musculus [12],20 mg/kg
same,LD50,[13],80 mg/kg
Cc1cc(C(C)(C)C)ccc1O,HD50,Mus musculus [12],80 mg/kg
same,LD50,[14],180 mg/kg
CCC(C)c1ccc(O)cc1 (stereo unspecified),LD50,[15],40 mg/kg
Oc1ccccc1 [PHENOL],HD50,Mus musculus [12],70 mg/kg
same,LD50,[5],100 mg/kg
Cc1cccc(C(C)(C)C)c1O,Speed of induction,Mus musculus [1],Immediate induction
same,HD50,Mus musculus [16],40 mg/kg
same,Duration of action,Mus musculus [2],Brief duration
same,LD50,[17],120 mg/kg
CCCc1cccc(CC)c1O,HD50,Mus musculus [18],20 mg/kg
same,Duration of action,Mus musculus [2],Brief duration
same,Speed of induction,Mus musculus [19],Very slow
same,LD50,[5],100 mg/kg
CCCCc1cccc(CCC)c1O,HD50,Mus musculus [18],20 mg/kg
same,Duration of action,Mus musculus [2],Brief duration
same,Speed of induction,Mus musculus [19],Very slow
same,LD50,[9],100 mg/kg
CCC(C)c1cccc(C(C)CC)c1O (stereo unspecified),Duration of action,Mus musculus [20],Moderate
same,LD50,[5],60 mg/kg
same,HD50,Mus musculus [3],5 mg/kg
same,Speed of induction,Mus musculus [11],Slow
CCc1cccc(CC)c1O,HD50,Mus musculus [21],15 mg/kg
same,Duration of action,Mus musculus [2],Brief duration
same,LD50,[5],100 mg/kg
same,Speed of induction,Mus musculus [11],Slow induction
CCCC(C)c1cccc(C(C)C)c1O (stereo unspecified),Duration of action,Mus musculus [8],Long
same,LD50,[5],80 mg/kg
same,HD50,Mus musculus [10],10 mg/kg
same,Speed of induction,Mus musculus [11],Slow
CCC(C)c1ccc(O)c(C(C)CC)c1 (stereo unspecified),HD50,Mus musculus [4],20 mg/kg
same,LD50,[5],120 mg/kg
Cc1ccc(O)c(C)c1,LD50,[9],100 mg/kg
same,HD50,Mus musculus [22],30 mg/kg
C=CCC1(C(C)C#CCC)C(=O)NC(=O)N(C)C1=O (stereo unspecified),Speed of induction,Mus musculus [1],Immediate
same,Duration of action,Mus musculus [2],Brief duration
CCCc1cccc(C(C)C)c1O,Speed of induction,Mus musculus [1],Immediate
same,HD50,Mus musculus [4],20 mg/kg
same,Duration of action,Mus musculus [2],Brief duration
same,LD50,[5],80 mg/kg
CCC(C)c1cc(C)cc(C(C)CC)c1O (stereo unspecified),HD50,Mus musculus [12],30 mg/kg
same,LD50,[5],140 mg/kg
CCc1ccc(O)c(C(C)C)c1,HD50,Mus musculus [12],40 mg/kg
same,LD50,[5],120 mg/kg
CC(C)c1cccc(C2CC2)c1O,Speed of induction,Mus musculus [1],Immediate
same,HD50,Mus musculus [4],20 mg/kg
same,Duration of action,Mus musculus [2],Brief duration
same,LD50,[17],120 mg/kg
CCCc1cccc(C(C)CC)c1O (stereo unspecified),Duration of action,Mus musculus [2],Brief duration
same,LD50,[5],120 mg/kg
same,HD50,Mus musculus [23],10 mg/kg
same,Speed of induction,Mus musculus [11],Slow
Cc1cccc(C2CCCCC2)c1O,LD50,[24],140 mg/kg
same,Duration of action,Mus musculus [2],Brief duration
same,Speed of induction,Mus musculus [19],Very slow
same,HD50,Mus musculus [22],30 mg/kg
CCCC(C)C1(CC)C(=O)NC(=S)NC1=O (stereo in doubt; form 1),Speed of induction,Mus musculus [1],Immediate
same,Duration of action,Mus musculus [2],Brief duration
CCCCc1c(C)ccc(C(C)C)c1O,HD50,Mus musculus [12],50 mg/kg
same,LD50,[5],150 mg/kg
CC(C)c1cccc(C2CCCCC2)c1O,Duration of action,Mus musculus [8],Long
same,LD50,[9],100 mg/kg
same,HD50,Mus musculus [22],30 mg/kg
same,Speed of induction,Mus musculus [11],Slow
